pIC50: −log10 of the molar value. Read-outs that look alike come from different tables or passages of the source.
Tests used:
[1] = tested on: ovarian tumor cells; experiment: DNA fragmentation, agarose-gel electrophoresis; assay type: cell-based, human; conditions: 50 μM
[2] = tested on: PA-1 human ovarian tumor cells; experiment: Cell cycle distribution and sub-G0/G1 DNA debris, flow cytometry; assay type: cell-based; conditions: for Cell Cycle Distribution, G0G1 / Cell Cycle Distribution, G2/M / Cell Cycle Distribution, S: PA1, 48 h
Method: (§1) Three×10^5 cells were seeded in plastic tissue culture flasks. […] Control cultures received an appropriate volume of Kollidine-17P. […] The percentage of DNA debris in the sub-G0/G1 region was assessed using cytofluorometric techniques. Each bar represents the mean (±SE) of three determinations. ** p≦0.01, *** p≦0.001, **** p≦0.0001
(§2) For flow cytometry studies, 1×10^6 PA-1, SKOV-3, or NIH-3T3 cells were incubated for 24 h in appropriate media containing serum. […] Control cultures for each cell line were incubated in media containing 40 μl of 5% Kollidon 17 PF alone. Forty-eight hours later, all cells were harvested by trypsinization and prepared for cytofluorometric analysis by standard methods. For example, harvested cells were resuspended in ice cold phosphate-buffered saline at a final cell density of 2×10^6 cells/ml. The cells then were stained for 30 min at room temperature in the dark with a solution of 0.05 mg/ml propidium iodide, 0.6% Igepal, and 1% sodium citrate. Flow cytometry was performed by FACScan (Becton Dickinson, Plymouth, England) using the ModFit LT program (Becton Dickinson). Statistical analysis was performed with the Kruskal Wallis non-parametric ANOVA test followed by Dunn's multiple comparisons test using Instat.
(§3) Three×10^5 cells were seeded in plastic tissue culture flasks. […] Control cultures received an appropriate volume of Kollidine-17P. After an additional 48 h, cells were harvested, stained with propidium iodide, and cell cycle distribution assessed using cytofluorometric techniques. Each value represents the percentage of cells in the noted cell cycle phases and is the mean±SEM of three determinations.

[3] = tested on: SKOV-3 human ovarian tumor cells; experiment: as above; assay type: cell-based; conditions: for Cell Cycle Distribution, G0G1 / Cell Cycle Distribution, G2/M / Cell Cycle Distribution, S: SKOV3, 48 h
Method: as §1, §2, §3

[4] = tested on: advanced recurrent glioblastoma multiforma; experiment: Clinical use in tumor patients; assay type: in vivo, human
Method: Taurolidine was administered by i.p. lavage immediately following surgery for removal of recurrent ovarian tumors. For patients with glioblastoma, taurolidine was administered systemically.
Four patients, which were diagnosed with advanced recurrent glioblastoma multiforma, were treated with taurolidine. The prognosis for this group of patients was determined to be approximately 8 weeks of survival.

[5] = tested on: panel of human and murine tumor cell lines; experiment: Cell growth inhibition, panel summary; assay type: cell-based; conditions: for pIC50: 72 h; for cytotoxic concentration lower than that for antibacterial/antibiotic effect: versus concentrations used to inhibit bacterial cell growth
Method: Parallel studies were carried out to assess whether disruption of cell adhesion played a role in the cytotoxic activity.
One ml of this cell suspension was added to each well of a 12 well cell culture plate that contained 3 ml of appropriate media plus serum. […] Control wells received 40 μl of 5% Kollidon 17 PF alone. Seventy-two hours later, all cells were harvested by trypsinization and cell number determined electronically using a Coulter Model Z1 particle counter (Coulter Corp., Miami, Fla.) to assess cell growth inhibition. Each experiment was performed in duplicate and repeated a minimum of three times.
Cells were seeded at a density of 1-5×10^4 cells in each well of a 6 well tissue culture flask. […] After three days, cells were harvested by trypsinization and cell number determined electronically. Cell growth inhibition was determined by comparison to non-Taurolidine exposed control cultures. The IC50 was calculated as the concentration required to inhibit cell number by 50%.

[6] = tested on: TNF; interleukins 1, 6, and 10; VEGF; TGF; experiment: Factors controlling angiogenesis in treated patients; assay type: in vivo, human; conditions: metastatic colon cancer patients, compared to placebo
Method: Patients with metastatic colon cancer were treated with taurolidine and several factors controlling angiogenesis were measured.

[7] = tested on: MDR-transfected glioblastoma cells; experiment: Cytotoxicity in drug resistant glioblastoma cells; conditions: 50 μM
From the text: The neoplastic cell lines used in the survey were standard tumor cell lines, e.g., PA1 human ovarian cell line, SKOV3 human ovarian cell line, HT29 human colon tumor cell line, DU145 human prostate tumor cell line, U251 human glioblastoma cell line, U251-MDR human glioblastoma cell line transfected with DNA encoding MDR, T98G human glioblastoma cell line, SP-1 human leukemia cell line, and Daudi human leukemia cell line.
Glioblastoma cells were transfected with a gene encoding multiple drug resistance (MDR).

With `O=S1(=O)CCN(CN2CCS(=O)(=O)NC2)CN1` [Taurolidine, Bis-(1,1-dioxoperhydro-1,2,4-thiadiazinyl-4)methane] the DNA fragmentation [1] was “overt DNA fragmentation”, the “Cell Cycle Distribution, G0G1” value ([2]; 25 μM) was 28.4 ± 0.5% and the “Cell Cycle Distribution, G2/M” value ([2]; 25 μM) was 24.7 ± 0.9%. The “Cell Cycle Distribution, S” value ([2]; 25 μM) was 46.8 ± 0.6%, the “Cell Cycle Distribution, G0G1” value ([2]; 50 μM) was 23.7 ± 2.2% and the “Cell Cycle Distribution, G0G1” value ([2]; 100 μM) was 28.4 ± 5.6%. The “Cell Cycle Distribution, G2/M” value ([2]; 100 μM) was 27.2 ± 17.9%, the “Cell Cycle Distribution, S” value ([2]; 100 μM) was 44.5 ± 23.5% and the “DNA debris in the sub-G0/G1 region” value ([2]; PA-1, 48 h, 25-100 μM) was “appearance of DNA debris in the sub-G0G1 region”. The “Cell Cycle Distribution, G0G1” value ([3]; 25 μM) was 45.8 ± 2.7%, the “Cell Cycle Distribution, G2/M” value ([3]; 25 μM) was 12.3 ± 3.1% and the “Cell Cycle Distribution, S” value ([3]; 25 μM) was 41.9 ± 4.2%. For the same compound, the “Cell Cycle Distribution, G0G1” value ([3]; 50 μM) was 30.7 ± 9.4%, the “Cell Cycle Distribution, G2/M” value ([3]; 50 μM) was 30.3 ± 10.5% and the “Cell Cycle Distribution, S” value ([3]; 50 μM) was 45.5 ± 12.4%. For the same compound, the “Cell Cycle Distribution, G0G1” value ([3]; 100 μM) was 19.9 ± 6.1%, the “Cell Cycle Distribution, G2/M” value ([3]; 100 μM) was 25.9 ± 7.8% and the “Cell Cycle Distribution, S” value ([3]; 100 μM) was 54.2 ± 8.6%. The “DNA debris in the sub-G0/G1 region” value ([3]; SKOV-3, 48 h, 25-100 μM) was “appearance of DNA debris in the sub-G0G1 region”, the “patients in whom the tumor mass decreased or stayed the same” value ([4]; 20 g i.v. over 6 hours twice a week, at least one 5 week regimen) was 3 out of the 4 and the tolerability in patients ([4]; i.p. lavage (recurrent ovarian tumors) or systemic (glioblastoma)) was “well tolerated”. The “survival after initiation of therapy, each patient alive” value ([4]; prognosis approximately 8 weeks) was no less than 14 weeks, the pIC50 ([5]; 3 d exposure, panel of human and murine tumor cell lines, read-out: IC50s over all cell lines evaluated) was 4.30 to 5.00 and the pIC50 ([5]; 3-day exposure, human cancer cell lines, read-out: concentration required to inhibit tumor cell growth (IC50)) was 4.30 to 4.90. For the same compound, the “cytotoxic concentration lower than that for antibacterial/antibiotic effect” value [5] was “approximately 100 fold”, the “cytotoxic concentration lower than that for antibacterial/antibiotic effect” value ([5]; listed as taurolidine) was “at least 1000 fold” and the “factors controlling the growth of blood vessels” value [6] was “decreased”. The cytotoxicity [7] was “Significant cytotoxicity”.
